The text below walks through data of PubChem BioAssay (NCI).

Test systems include UACC-257 melanoma; EKVX NSCLC; HOP-62 NSCLC; MOLT-4 leukemia; RXF 393 renal; SNB-19 CNS; SK-OV-3 ovarian; SNB-78 CNS; DMS 114 small cell lung; OVCAR-4 ovarian.
Common to all, as to test: inhibition of tumour cell growth, NCI panel, 48 h

Each structure is given as a SMILES string.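 Results reflect a 48-hour exposure of cells in 96-well plates to compound at five concentrations. The concentration for 50% growth inhibition is given as GI50. TGI denotes the concentration required for complete inhibition of growth.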

Turning to `c1ccc2c(c1)CCc1cc3cc4c(nc3nc1-2)-c1ccccc1CC4`, the TGI with UACC-257 melanoma, in the experiment with EKVX NSCLC, with HOP-62 NSCLC, in the experiment on MOLT-4 leukemia, with RXF 393 renal and in the experiment with SNB-19 CNS was more than 100 µM throughout. Moreover, the TGI in the experiment on SK-OV-3 ovarian and with SNB-78 CNS was more than 100 µM each time.
Regarding `CCN(c1ccc(Br)cc1)c1c(Br)c(=O)nc2ccccn12`, the TGI in the experiment with DMS 114 small cell lung, in the experiment on EKVX NSCLC, with HOP-62 NSCLC, in the experiment on MOLT-4 leukemia, in the experiment on SNB-19 CNS and in the experiment on SK-OV-3 ovarian was more than 100 µM each time. In the experiment with SNB-78 CNS, this compound returned a TGI of more than 100 µM.
Consider `Cc1cccc(NC(=O)C(=O)C(C(=O)c2ccccc2F)C2OC(=O)c3ccccc32)c1Cl` (stereo not given), for which the TGI is 53 µM in the experiment with DMS 114 small cell lung; more than 100 µM in the experiment with UACC-257 melanoma; more than 100 µM in the experiment with EKVX NSCLC; more than 100 µM in the experiment on HOP-62 NSCLC; more than 100 µM in the experiment on MOLT-4 leukemia; more than 100 µM with SNB-19 CNS. Besides, the TGI in the experiment with OVCAR-4 ovarian, with SK-OV-3 ovarian and with SNB-78 CNS was more than 100 µM in each case.
`CC(C)(C)C(=O)ON1N=NC2C3CC(OCc4ccccc4)(OCc4ccccc4)C(O3)C21` (stereo not given): the TGI in the experiment on UACC-257 melanoma is 29.2 µM; in the experiment with HOP-62 NSCLC, more than 100 µM; in the experiment with MOLT-4 leukemia, 32.2 µM; in the experiment with RXF 393 renal, 36.5 µM; with OVCAR-4 ovarian it was 82.4 µM; in the experiment on SK-OV-3 ovarian it was more than 100 µM. Besides, the TGI with SNB-78 CNS is more than 100 µM.
With `COc1cccc(Cc2c3cc(OC)ccc3cc[n+]2C)c1`, the TGI in the experiment with UACC-257 melanoma is 51.6 µM; in the experiment on EKVX NSCLC, more than 100 µM; with HOP-62 NSCLC, more than 100 µM; with MOLT-4 leukemia, more than 100 µM; in the experiment on SNB-19 CNS, more than 100 µM; in the experiment with OVCAR-4 ovarian, more than 100 µM. The TGI in the experiment on SNB-78 CNS is more than 100 µM.
Regarding `O=[Se](=O)c1ccccc1.O=[Se](=O)c1ccccc1.[Cu]`, the GI50 is 6.77 µM with DMS 114 small cell lung; 16 µM in the experiment on UACC-257 melanoma; 26 µM with HOP-62 NSCLC; 12 µM in the experiment with MOLT-4 leukemia; 15.3 µM with RXF 393 renal; 17.4 µM in the experiment on SNB-19 CNS. The results for the GI50 with OVCAR-4 ovarian, in the experiment with SK-OV-3 ovarian and in the experiment with SNB-78 CNS were 18.7 µM, 27.3 µM and 12.4 µM, respectively. For the same compound, the TGI came to 14.9 µM in the experiment on DMS 114 small cell lung; 30.4 µM with UACC-257 melanoma; 43.4 µM with HOP-62 NSCLC; 65.8 µM with MOLT-4 leukemia; 29.2 µM with RXF 393 renal; 31.3 µM in the experiment on SNB-19 CNS. Moreover, the TGI in the experiment on OVCAR-4 ovarian is 34.5 µM; in the experiment on SK-OV-3 ovarian, 42.1 µM; in the experiment with SNB-78 CNS, 17.1 µM.
On to `CCOC(=O)C(=Cc1ccc(C(=O)OC)cc1)C(=O)OCC`, for which the TGI in the experiment with DMS 114 small cell lung amounted to 3.74 µM; with EKVX NSCLC it was 26.9 µM; in the experiment on HOP-62 NSCLC it was 4.43 µM; in the experiment on MOLT-4 leukemia it was 7.74 µM; in the experiment on SNB-19 CNS, 6.47 µM; in the experiment on OVCAR-4 ovarian, 14 µM. The same compound gave a TGI in the experiment with SK-OV-3 ovarian of 26.4 µM.
As to `O=C(c1ccccc1)c1ccc2nc(-c3c(Cl)c(Cl)c(Cl)c(Cl)c3C(=O)N/N=C/c3ccccc3)[nH]c2c1`, the TGI in the experiment on UACC-257 melanoma was 85 µM; with EKVX NSCLC, 60.2 µM; with HOP-62 NSCLC it was 99.7 µM; in the experiment with MOLT-4 leukemia it was 54.1 µM; in the experiment on RXF 393 renal it was 73.2 µM; in the experiment with SNB-19 CNS it was more than 100 µM. Moreover, the TGI in the experiment with OVCAR-4 ovarian is 83.5 µM; in the experiment with SK-OV-3 ovarian, more than 100 µM.
Turning to `Cc1nc2ccc(S(=O)(=O)O)cc2c(=O)n1-c1ccc(C(=O)NN2C(=O)C(Cl)C2c2ccccc2O)cc1` (stereo not given), the TGI in the experiment on UACC-257 melanoma, in the experiment with EKVX NSCLC, in the experiment on HOP-62 NSCLC, in the experiment on MOLT-4 leukemia, in the experiment with RXF 393 renal and in the experiment with SNB-19 CNS was more than 100 µM each time. In addition, the TGI with OVCAR-4 ovarian and in the experiment on SK-OV-3 ovarian was more than 100 µM throughout.
Take `COC(=O)/C=C1\CCC(C)(C(=O)NS(=O)(=O)c2ccc(C)cc2)C1(C)C` (stereo not given): the TGI with UACC-257 melanoma, in the experiment on EKVX NSCLC, in the experiment with HOP-62 NSCLC, in the experiment on MOLT-4 leukemia, in the experiment with RXF 393 renal and with SNB-19 CNS was more than 100 µM throughout. Further, the TGI with OVCAR-4 ovarian and in the experiment with SK-OV-3 ovarian was more than 100 µM throughout.
On to `COc1ccc(N=N/C(=N/NC(=O)c2ccccc2)c2ccc(N(CCC#N)CCC#N)cc2C)cc1`, for which the TGI in the experiment with UACC-257 melanoma, in the experiment with EKVX NSCLC, in the experiment with HOP-62 NSCLC, in the experiment on MOLT-4 leukemia, with RXF 393 renal and with SNB-19 CNS was more than 100 µM in each case. Besides, the TGI with OVCAR-4 ovarian and with SK-OV-3 ovarian was more than 100 µM throughout.
